In patent publication US11945826B2, “Hydroxypyridoxazepines as NRF2 activators” (GLAXOSMITHKLINE INTELLECTUAL PROPERTY DEVELOPMENT LIMITED, priority 2019, dated 2024):

Legend:
[1] = Mouse PK Study; type: in vivo; details: male CD1 mice, 30 mg/kg oral suspension, blood
Description: All studies were conducted after review by the GSK Institutional Animal Care and Use Committee and in accordance with the GSK Policy on the Care, Welfare and Treatment of Laboratory Animals. The oral suspension pharmacokinetic study was carried out on a single study day; a total of three male CD1 mice were used.
(§1) The compounds used in this study were the compound of Example 1, herein, and Compound A (the compound of Example 1 of WO 2018/109646).
The oral suspension dose was prepared in 1% aqueous methylcellulose. Each animal received a nominal dose of 30 mg/kg (10 mL/kg dose volume) as an oral gavage. Blood samples (approximately 0.025 mL each) were collected from a tail vein. Blood samples were collected prior to dosing and at target times of 15, 30, 60, 120, 240, 480, and 1440 minutes following oral gavage. A 25 μL aliquot was added to a non-heparinized tube containing 25 μL water and quick frozen on solid carbon dioxide and stored at approximately −80° C. until analyzed by liquid chromatography/tandem mass spectroscopy (LC/MS/MS) for test compound concentration.
Pharmacokinetic parameters for all in vivo PK studies were calculated using non-compartmental methods with Phoenix WinNonlin version 6.1.0 or 8.1.0. All parameters were calculated using actual blood sampling times and actual dosages for each animal. […]

[2] = Mouse Plasma Protein Binding Study; type: in vitro ADME; details: heparinized mouse plasma, pH 7.5, ultracentrifugation 37° C. 3 hours, read-out: Plasma Protein Binding, % bound (converted)
Description: Stock solutions of the compound of Example 1, herein, and Compound A (the compound of Example 1 of WO 2018/109646), were prepared in dimethyl sulfoxide (DMSO) at a concentration of 1 mg/mL. Incubation mixtures were prepared by diluting the stock solution into heparinized mouse plasma to a concentration of 2000 ng/mL. The final concentration of DMSO was 0.2%. The thawed plasma was centrifuged to remove any debris. If necessary, the pH of the plasma sample was adjusted to approximately 7.5 with 1% aqueous phosphoric acid prior to use. Incubation mixtures were prepared. Triplicate 10 μL aliquots of each incubation mixture were collected and analyzed to verify initial compound concentration. Four aliquots of each incubation mixture were placed into separate polyallomer ultracentrifuge tubes. The incubation mixtures were centrifuged in a Beckman Type 42.2 Ti rotor at 42,000 rpm (214,361×g) at 37° C. for 3 hours with maximum acceleration and deceleration. […] The samples were quick frozen on solid carbon dioxide and stored at approximately −80° C. until analyzed by liquid chromatography/tandem mass spectroscopy (LC/MS/MS) for test compound concentration. Total recovery of compound from the ultracentrifugation tubes was calculated with the following formula: […]
Percent unbound (Fu) by ultracentrifugation was calculated with the following formula: […]

[3] = Rat PK Study; type: in vivo; details: plasma, nominal 1 mg/kg 30-minute intravenous infusion; for MRT: read-out: Rat Pharmacokinetics MRT; for clearance: read-out: Rat Pharmacokinetics Total Clearance
Description: All studies were conducted after review by the GSK Institutional Animal Care and Use Committee and in accordance with the GSK Policy on the Care, Welfare and Treatment of Laboratory Animals. This study was conducted with a crossover design on two study days with a one-day recovery period between each study day. At least three days prior to the start of the study, three rats received surgically implanted femoral vein, femoral artery, and gastric catheters for infusion of test molecules, blood sampling, and oral dose administration, respectively. Dose solutions were filtered prior to administration and the actual dosage administered to the animals was quantified. All PK parameters were calculated based on the actual dosage administered to each animal. Urine was collected from 0-24 h following iv administration from each animal for determination of renal clearance.
as §1
The dose for intravenous administration was prepared in 20% Cavitron™ and 5% DMSO. The intravenous dose formulation was filtered through a 0.22-micron polytetrafluoroethylene (PTFE) filter prior to administration. The dose for oral solution administration was prepared in 6% Cavitron™ and 5% DMSO and was filtered through a 0.22-micron VWR PTFE filter prior to administration.
Each animal received a nominal dose of 1 mg/kg (4 mL/kg dose volume) as a 30-minute intravenous infusion on study day one. On study day two, each animal received a nominal dose of 2 mg/kg (16 mL/kg dose volume) as an oral gavage. Blood samples (approximately 0.11 mL each) were collected from the femoral artery catheter. […] Plasma was isolated from blood by centrifugation and a 30 μL aliquot was transferred to a non-heparinized tube, quick frozen on solid carbon dioxide and stored at approximately −80° C. until analyzed by liquid chromatography/tandem mass spectroscopy (LC/MS/MS) for test compound concentration.
Pharmacokinetic parameters for all in vivo PK studies were calculated using non-compartmental methods with Phoenix WinNonlin version 6.1.0 or 8.1.0. All parameters were calculated using actual blood sampling times and actual dosages for each animal. The extrapolated area under the curve (AUC0-inf) was determined using unweighted linear regression analysis of at least three log transformed concentrations visually assessed to be on the linear portion of the terminal elimination slope. Oral solution bioavailability was calculated in a non-crossover fashion using the mean intravenous dose and AUC0-inf values from the two intravenously dosed animals for the monkey PK study and in a crossover fashion for the rat PK study.

Row | SMILES | Mouse Pharmacokinetics Clearance/Bioavailability [1] [mL/min/kg] | fraction unbound at 3 h, 2000 ng/mL [2] | MRT [3] [h] | clearance [3] [mL/min/kg]
1 | CC[C@@H]1CN(Cc2cc([C@@H](CC(=O)O)c3ccc4c(nnn4C)c3C)ccc2C)Cc2nc(O)ccc2O1 [Example 1, (R)-3-(1,4-dimethyl-1H-benzo[d][1,2,3]triazol-5-yl)-3-(3-(((R)-2-ethyl-7-hydroxy-2,3-dihydropyrido[2,3-f][1,4]oxazepin-4(5H)-yl)methyl)-4-methylphenyl)propanoic acid] | 15.6 | 0.084 | 6.5 | 5.2
2 | CC[C@@H]1CN(Cc2cc([C@@H](CC(=O)O)c3ccc4c(nnn4C)c3C)ccc2C)Cc2ncccc2O1 [Compound A, reference compound] | 31 | 0.003 | 4 | 1.9
